Source: patent US7211567B1, “Composition for preventing and treating type I allergy” (Sunstar, Inc., priority 1999, dated 2007)

Assays:
[1] = test system: passive cutaneous anaphylaxis (auricula swelling); test: Suppression of passive cutaneous anaphylaxis (PCA) in mice; format: in vivo, ddY male mice; settings: astragalin 1.25 mg/kg oral
Protocol: Ten 5-week-old ddY male mice were purchased from Japan SLC, and were reared at a room temperature of 23±3° C. and a humidity of 55±15%, with a 12 hour light-dark cycle (light period 7:00 to 19:00). The mice were kept 5 to a cage, and were fed a standard diet (Labo MR Stock, Nihon Nosan Kogyo K.K.) for a 7-day preliminary period, before being divided into a group to be administered astragalin and a control group each of 5 mice. A 0.025% (w/v) solution of astragalin in distilled water was forcedly orally administered (1.25 mg/5 ml/kg) to the astragalin-administered group using a metal stomach tube, while distilled water was forcedly orally administered (5 ml/kg) to the control group. One hour after the administration, 20 μl of an anti-DNP mouse IgE antibody (10 μg/ml) was intracutaneously injected into the right auricula and 20 μl of physiological saline into the left auricula of each mouse. 24 hours after the intracutaneous injections, 100 μl of DNP-BSA (1 mg/ml) was intravenously injected into the tail of each mouse. 15 minutes later, the thicknesses of the left and right auriculae of each mouse were measured three times using a thickness gauge (Ozaki Seisakusho K.K.). The auricula swelling rate was then calculated for each group using undermentioned equation 1, and the auricula swelling suppression rate was calculated using undermentioned equation 2. The measurement values were represented by the mean and standard deviation.

[2] = test system: histamine release (CRA-1 anti human FcεRI stimulated human whole blood cells); test: Histamine release suppression test using human whole blood; format: cell-based; settings: for histamine release suppression rate: N=3, mean ± SD
Protocol: Human whole blood was collected from healthy volunteers and heparin was added thereto. A blood sample was prepared by adding 6 parts by weight of a histamine release buffer (Immunotech) to 1 part by weight of the whole blood to which the heparin had been added. 200 μl of the blood sample and 100 μl of a histamine release buffer comprising astragalin (33 μM), kaempferol (33 μM) or epinephrine (1638 μM or 4917 μM) were placed in an Eppendorf tube and allowed to stand for 30 minutes while cooling in ice (final concentration: 11 μM for astragalin, 11 μM for kaempferol, 546 μM or 1639 μM for epinephrine).
Centrifugal separation (3000 rpm, 5 minutes, 4° C.) was then carried out and the supernatant removed, and the resulting cells were again put into 300 μl of a histamine release buffer. 4.5 μl of 1 mg/ml CRA-1 (an anti human FcεRI receptor antibody, Cosmo Bio) was next added to the mixture (final CRA-1 concentration 15 μg/ml), and incubation was carried out for 30 minutes at 37° C. After centrifugation (3000 rpm, 10 minutes, 4° C.), the amount of histamine in the supernatant was measured using a histamine EIA kit (Immunotech). The histamine release suppression rate (%) was then calculated using undermentioned equation 3 from histamine amounts calculated from a calibration curve. The measurements were carried out with N=3, and the measurement values were represented by the mean and standard deviation.
[formula] A: Amount of histamine released from cells to which astragalin/kaempferol/epinephrine added (n mole) B: Amount of histamine released from untreated cells (n mole) C: Amount of histamine released from cells to which only CRA-1 added (n mole)

[3] = test system: atopic dermatitis in NC/Nga mice; test: Intake test using NC/Nga mice: dermal symptoms of atopic dermatitis; format: in vivo, NC/Nga male mice; settings: 0.0007% astragalin in diet ad libitum; end of experiment (13 weeks old); 5 mice; control 4 of 5 developed symptoms
Protocol: NC/Nga mice are conventional grade animals, and atopic dermatitis model mice that spontaneously develop atopic dermatitis. Moreover, the development of atopy is accompanied by a rise in serum IgE level.
(§1) Ten 4-week-old NC/Nga male mice were purchased from Japan SLC, and were reared at a room temperature of 23±3° C. and a humidity of 55±15%, with a 12 hour light-dark cycle (light period 7:00 to 19:00). The mice were kept 5 to a cage, and were fed a standard diet (Labo MR Stock, Nihon Nosan Kogyo K.K.) for a 7-day preliminary period, before being divided into a control group and a group to be administered astragalin, each of 5 mice. The mice were then allowed to eat the following diets ad libitum. Control group: A diet prepared by adding a corn starch (0.0007%, Oriental Enzyme K.K.) to MF powder (Oriental Enzyme K.K.) and then mixing in a mixer.
(§2) Astragalin-administered group: A diet prepared by adding astragalin (0.0007%) to the MF powder and then mixing in a mixer.
The following judgement criteria were used.
Slight inflammation or scratch wounds: 1
Medium degree inflammation, scratch wounds or bleeding: 2
Severe inflammation, scratch wounds or bleeding: 3
For each mouse, the judgement was carried out for each of the head, the shoulders and the back, and then the highest of the three scores was taken as the ‘maximum score’. […]

serum IgE level = test: Intake test using NC/Nga mice: serum IgE level; format: in vivo, NC/Nga male mice; settings: 0.0007% astragalin in diet; end of experiment (13 weeks); control 6,018 ng/ml; difference statistically significant
Protocol: as §1, §2
The serum IgE level was measured at the start of the experiment and then at 2-week intervals until the end of the experiment by collecting blood from the orbit and then using a mouse IgE measurement kit ‘Yamasa’ EIA (lot 702). The serum IgE level measurement values were represented by the mean and standard deviation. The differences between the two groups were tested for statistical significance using t-tests, and a significance level of 5% or less was determined significant.

[4] = test system: IL-4 mRNA expression in human basophilic leukemia cell line (KU812); test: Expression of IL-4 mRNA using RT-PCR in KU812 cells; format: cell-based; settings: A23187 ionophore 1 μM
Protocol: A human basophilic leukemia cell line (KU812) was cultured at 37° C. with 5% CO2 in an RPMI 1640 culture medium (Gibco) containing 10% bovine fetal serum (treated at 56° C. for 30 minutes). The KU812 cells (5×10^5 cells/ml) were then stimulated using astragalin (0, 1.1, 3.3 or 11 μM) and an A23187 ionophore (1 μM). After washing, the total RNA was collected using RNAzol (Biotex, USA). 500 ng of the collected total RNA was mixed with an RT mixture (Perkin Elmer Cetus, USA), and then incubation was carried out for 5 minutes at 99° C. followed by 60 minutes at 37° C. After the RT products had been obtained, PCR amplification was carried out using an IL-4-specific primer and β-actin-specific primer. The products were subjected to migration in 2% agarose gel and stained with ethidium bromide, and then the amount of expression was evaluated.

pollinosis symptoms = test: Pollinosis symptom scores in volunteers drinking astragalin solution; format: in vivo, human volunteers; settings: for Impediment to daily life total point score / Nasal congestion total point score / Nasal discharge total point score / Sneezing total point score: mean of 13 volunteers
Protocol: Thirteen volunteers who had previously experienced pollinosis were asked to drink 240 μg of astragalin (in the form of 1 ml of concentrated persimmon leaf extract) dissolved in a suitable amount (50 to 200 ml) of water or hot water twice a day (morning and evening) starting 14 days before the start of the pollen season and ending 14 days after the start of the pollen season.
Sneezing, nasal discharge, nasal congestion and extent of impediment to daily life were evaluated using a points system both during the 7 days immediately before stopping drinking the astragalin solution (‘while drinking’ below) and during the 7 days immediately after stopping drinking the astragalin solution (‘after stopping drinking’ below).
For sneezing, 1 point was recorded for each sneeze. For nasal discharge, 1 point was recorded each time the nose was blown. […] For extent of impediment to daily life, 3 points were recorded when one could not settle down to work at all, 2 points were recorded when there was some impediment to working, 1 point was recorded when there was little impediment to working, and 0 points were recorded when there was no impediment to working; points were recorded daily.
The total point scores for the 7-day ‘while drinking’ period and the 7-day ‘after stopping drinking’ period are shown in Table 1 below as mean values over the 13 volunteers.

[5] = after stopping drinking (7 days immediately after)
[6] = while drinking (7 days before stopping), 240 μg astragalin twice a day, p 0.003

Compound: O=c1c(O[C@@H]2O[C@H](CO)[C@@H](O)[C@H](O)[C@H]2O)c(-c2ccc(O)cc2)oc2cc(O)cc(O)c12 [astragalin, kaempferol-3-glucoside]
- right auricula thickness ([1]; anti-DNP IgE-injected right auricula, 15 min after DNP-BSA i.v., mean ± SD): 0.286±0.017 mm
- auricula swelling suppression rate ([1]; versus distilled water control): 33%
- auricula swelling rate ([1]; control 27.2±12.5%): 18.2±5.0%
- left auricula thickness ([1]; saline-injected left auricula, 15 min after DNP-BSA i.v., mean ± SD): 0.242±0.013 mm
- histamine release suppression rate ([2]; 11 μM final concentration): 50±7%
- histamine release suppression action about the same as that of epinephrine of x times the concentration ([2]; astragalin 11 μM versus epinephrine 1639 μM): ~150 times
- development of atopic dermatitis symptoms [3]: not one mouse had developed symptoms
- serum IgE level (serum IgE level): 1,225 ng/ml
- IL-4 expression ([4]; astragalin 3.3 μM or 11 μM): particularly marked effects
- IL-4 expression ([4]; astragalin 1.1, 3.3 or 11 μM): suppressed
- Impediment to daily life total point score (pollinosis symptoms; [5]): 10 ± 10 points
- Nasal congestion total point score (pollinosis symptoms; [5]): 13 ± 11 points
- Nasal discharge total point score (pollinosis symptoms; [5]): 62 ± 83 points
- Sneezing total point score (pollinosis symptoms; [5]): 68 ± 79 points
- rough skin condition (pollinosis symptoms; two of the volunteers with rough skin before treatment, while drinking the astragalin solution): improved
- Sneezing total point score (pollinosis symptoms; while drinking (7 days before stopping), 240 μg astragalin twice a day as concentrated persimmon leaf extract, p 0.001): 23 ± 21 points
- Nasal congestion total point score (pollinosis symptoms; [6]): 3 ± 3 points
- Nasal discharge total point score (pollinosis symptoms; [6]): 21 ± 26 points
- Impediment to daily life total point score (pollinosis symptoms; while drinking (7 days before stopping), 240 μg astragalin twice a day, p 0.005): 1 ± 2 points

Compound: CNC[C@H](O)c1ccc(O)c(O)c1 [epinephrine]
- histamine release suppression rate ([2]; 546 μM final concentration): 31±3%
- histamine release suppression rate ([2]; 1639 μM final concentration): 55±4%

Compound: O=c1c(O)c(-c2ccc(O)cc2)oc2cc(O)cc(O)c12 [kaempferol]
- histamine release suppression rate ([2]; 11 μM final concentration): 31±9%
